PubChem BioAssay (NCI)
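48-hour exposure; five concentrations; linearly interpolated endpoints. GI50 marks 50% less growth. TGI: total growth inhibition.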

Tests used:
Assay in all cases: growth of human tumour cells (NCI), 48 h; in the data active means GI50 below about 0.43 µM; inactive means the rest
OVCAR-4 ovarian = system: OVCAR-4 ovarian
HCC-2998 colon = system: HCC-2998 colon
HS 578T breast = system: HS 578T breast
CCRF-CEM leukemia = system: CCRF-CEM leukemia
SR leukemia = system: SR leukemia
OVCAR-3 ovarian = system: OVCAR-3 ovarian
K-562 leukemia = system: K-562 leukemia
MDA-MB-231 breast = system: MDA-MB-231 breast
UO-31 renal = system: UO-31 renal
OVCAR-5 ovarian = system: OVCAR-5 ovarian
SK-OV-3 ovarian = system: SK-OV-3 ovarian
OVCAR-8 ovarian = system: OVCAR-8 ovarian
HT29 colon = system: HT29 colon
SF-295 CNS = system: SF-295 CNS
MOLT-4 leukemia = system: MOLT-4 leukemia
EKVX NSCLC = system: EKVX NSCLC
HCT-15 colon = system: HCT-15 colon
MDA-MB-435 = system: MDA-MB-435
BT-549 breast = system: BT-549 breast
SK-MEL-5 melanoma = system: SK-MEL-5 melanoma
UACC-62 melanoma = system: UACC-62 melanoma
MALME-3M melanoma = system: MALME-3M melanoma
UACC-257 melanoma = system: UACC-257 melanoma
HOP-92 NSCLC = system: HOP-92 NSCLC
NCI-H522 lung = system: NCI-H522 lung
786-0 renal = system: 786-0 renal
SNB-19 CNS = system: SNB-19 CNS
SNB-75 CNS = system: SNB-75 CNS
A549 NSCLC = system: A549 NSCLC
SF-268 CNS = system: SF-268 CNS
HOP-62 NSCLC = system: HOP-62 NSCLC
KM12 colon = system: KM12 colon
COLO 205 colon = system: COLO 205 colon
A498 renal = system: A498 renal
SK-MEL-28 melanoma = system: SK-MEL-28 melanoma
NCI-H460 lung = system: NCI-H460 lung
NCI/ADR-RES ovarian = system: NCI/ADR-RES ovarian
ACHN renal = system: ACHN renal
TK-10 renal = system: TK-10 renal
NCI-H226 lung = system: NCI-H226 lung
SF-539 CNS = system: SF-539 CNS
M14 melanoma = system: M14 melanoma
RXF 393 renal = system: RXF 393 renal
HL-60(TB) leukemia = system: HL-60(TB) leukemia
HCT-116 colon = system: HCT-116 colon
U251 CNS = system: U251 CNS
CAKI-1 renal = system: CAKI-1 renal
SW-620 colon = system: SW-620 colon
PC-3 prostate = system: PC-3 prostate
SK-MEL-2 melanoma = system: SK-MEL-2 melanoma
LOX IMVI melanoma = system: LOX IMVI melanoma
RPMI-8226 leukemia = system: RPMI-8226 leukemia
MCF7 breast = system: MCF7 breast
IGROV1 ovarian = system: IGROV1 ovarian
NCI-H23 lung = system: NCI-H23 lung
SN12C renal = system: SN12C renal
DU-145 prostate = system: DU-145 prostate
T-47D breast = system: T-47D breast

Cc1ccc2nc(-c3ccc(N)c(I)c3)sc2c1
71.5 µM: TGI (HOP-92 NSCLC)
26.2 µM: TGI (UO-31 renal)
88.7 µM: TGI (SF-268 CNS)
17.7 µM: TGI (TK-10 renal)
19.8 µM: TGI (SR leukemia)
51 µM: TGI (HL-60(TB) leukemia)
56.1 µM: TGI (KM12 colon)
60.6 µM: TGI (PC-3 prostate)
57.8 µM: TGI (SW-620 colon)
26.4 µM: TGI (HCC-2998 colon)
32.7 µM: TGI (786-0 renal)
40.6 µM: TGI (NCI-H226 lung)
30.9 µM: TGI (COLO 205 colon)
39.2 µM: TGI (NCI-H522 lung)
34.8 µM: TGI (HT29 colon)
> 100 µM: TGI (HS 578T breast) | TGI (OVCAR-3 ovarian) | TGI (K-562 leukemia) | TGI (MDA-MB-231 breast) | TGI (OVCAR-5 ovarian) | TGI (SK-OV-3 ovarian) | TGI (OVCAR-8 ovarian) | TGI (MOLT-4 leukemia) | TGI (EKVX NSCLC) | TGI (BT-549 breast) | TGI (SK-MEL-5 melanoma) | TGI (UACC-62 melanoma) | TGI (MALME-3M melanoma) | TGI (UACC-257 melanoma) | TGI (SNB-75 CNS) | TGI (HOP-62 NSCLC) | TGI (SK-MEL-28 melanoma) | TGI (NCI-H460 lung) | TGI (NCI/ADR-RES ovarian) | TGI (ACHN renal) | TGI (M14 melanoma) | TGI (RXF 393 renal) | TGI (HCT-116 colon) | TGI (CAKI-1 renal)
44.9 µM: TGI (SF-295 CNS)
68.3 µM: TGI (SF-539 CNS)
40.8 µM: TGI (SK-MEL-2 melanoma)
23.2 µM: TGI (HCT-15 colon)
41.9 µM: TGI (OVCAR-4 ovarian)
88.8 µM: TGI (CCRF-CEM leukemia)
79.1 µM: TGI (MDA-MB-435)
58.7 µM: TGI (A549 NSCLC)
86.4 µM: TGI (SNB-19 CNS)
98.6 µM: TGI (U251 CNS)
56 µM: TGI (A498 renal)

Nc1c(C(=O)N/N=C/c2ccc(-c3ccc(Cl)cc3)o2)cnn1-c1ccnc2c(C(F)(F)F)cccc12
inactive: GI50 (OVCAR-4 ovarian) 72.5 µM | GI50 (HCC-2998 colon) > 100 µM | GI50 (HS 578T breast) > 100 µM | GI50 (OVCAR-3 ovarian) > 100 µM | GI50 (K-562 leukemia) 97.7 µM | GI50 (LOX IMVI melanoma) > 100 µM | GI50 (MDA-MB-231 breast) > 100 µM | GI50 (UO-31 renal) > 100 µM | GI50 (OVCAR-5 ovarian) > 100 µM | GI50 (SK-OV-3 ovarian) > 100 µM | GI50 (HT29 colon) 77.4 µM | GI50 (SF-295 CNS) > 100 µM | GI50 (MOLT-4 leukemia) 50.8 µM | GI50 (EKVX NSCLC) > 100 µM | GI50 (HCT-15 colon) > 100 µM | GI50 (MDA-MB-435) > 100 µM | GI50 (SK-MEL-5 melanoma) 49.1 µM | GI50 (RPMI-8226 leukemia) 0.496 µM | GI50 (UACC-62 melanoma) > 100 µM | GI50 (MALME-3M melanoma) > 100 µM | GI50 (HOP-92 NSCLC) 50.7 µM | GI50 (NCI-H522 lung) > 100 µM | GI50 (786-0 renal) > 100 µM | GI50 (SNB-19 CNS) > 100 µM | GI50 (SNB-75 CNS) 65.4 µM | GI50 (A549 NSCLC) 83.9 µM | GI50 (MCF7 breast) > 100 µM | GI50 (SF-268 CNS) > 100 µM | GI50 (IGROV1 ovarian) > 100 µM | GI50 (HOP-62 NSCLC) > 100 µM | GI50 (KM12 colon) > 100 µM | GI50 (COLO 205 colon) > 100 µM | GI50 (A498 renal) > 100 µM | GI50 (NCI-H23 lung) > 100 µM | GI50 (SK-MEL-28 melanoma) > 100 µM | GI50 (NCI-H460 lung) > 100 µM | GI50 (NCI/ADR-RES ovarian) > 100 µM | GI50 (ACHN renal) > 100 µM | GI50 (TK-10 renal) > 100 µM | GI50 (NCI-H226 lung) > 100 µM | GI50 (SF-539 CNS) > 100 µM | GI50 (M14 melanoma) > 100 µM | GI50 (HL-60(TB) leukemia) > 100 µM | GI50 (HCT-116 colon) > 100 µM | GI50 (U251 CNS) > 100 µM | GI50 (SN12C renal) > 100 µM | GI50 (CAKI-1 renal) > 100 µM | GI50 (SW-620 colon) > 100 µM | GI50 (PC-3 prostate) 35 µM | GI50 (DU-145 prostate) > 100 µM | GI50 (SK-MEL-2 melanoma) > 100 µM | GI50 (T-47D breast) 42.4 µM
> 100 µM: TGI (OVCAR-4 ovarian) | TGI (HCC-2998 colon) | TGI (HS 578T breast) | TGI (OVCAR-3 ovarian) | TGI (K-562 leukemia) | TGI (LOX IMVI melanoma) | TGI (MDA-MB-231 breast) | TGI (UO-31 renal) | TGI (OVCAR-5 ovarian) | TGI (SK-OV-3 ovarian) | TGI (HT29 colon) | TGI (SF-295 CNS) | TGI (MOLT-4 leukemia) | TGI (EKVX NSCLC) | TGI (HCT-15 colon) | TGI (MDA-MB-435) | TGI (SK-MEL-5 melanoma) | TGI (RPMI-8226 leukemia) | TGI (UACC-62 melanoma) | TGI (MALME-3M melanoma) | TGI (HOP-92 NSCLC) | TGI (NCI-H522 lung) | TGI (786-0 renal) | TGI (SNB-19 CNS) | TGI (SNB-75 CNS) | TGI (A549 NSCLC) | TGI (MCF7 breast) | TGI (SF-268 CNS) | TGI (IGROV1 ovarian) | TGI (HOP-62 NSCLC) | TGI (KM12 colon) | TGI (COLO 205 colon) | TGI (A498 renal) | TGI (NCI-H23 lung) | TGI (SK-MEL-28 melanoma) | TGI (NCI-H460 lung) | TGI (NCI/ADR-RES ovarian) | TGI (ACHN renal) | TGI (TK-10 renal) | TGI (NCI-H226 lung) | TGI (SF-539 CNS) | TGI (M14 melanoma) | TGI (HL-60(TB) leukemia) | TGI (HCT-116 colon) | TGI (U251 CNS) | TGI (SN12C renal) | TGI (CAKI-1 renal) | TGI (SW-620 colon) | TGI (PC-3 prostate) | TGI (DU-145 prostate) | TGI (SK-MEL-2 melanoma) | TGI (T-47D breast)
